One data set has as its target T1, rat UT-A1 (Rattus norvegicus, UniProt Q62668).
T1 construct: expressed in transfected cells; host or cells: MDCK cells stably co-expressing rat UT-A1, human AQP1 and YFP-H148Q/V163S
T1 sequence (Q62668 1-929): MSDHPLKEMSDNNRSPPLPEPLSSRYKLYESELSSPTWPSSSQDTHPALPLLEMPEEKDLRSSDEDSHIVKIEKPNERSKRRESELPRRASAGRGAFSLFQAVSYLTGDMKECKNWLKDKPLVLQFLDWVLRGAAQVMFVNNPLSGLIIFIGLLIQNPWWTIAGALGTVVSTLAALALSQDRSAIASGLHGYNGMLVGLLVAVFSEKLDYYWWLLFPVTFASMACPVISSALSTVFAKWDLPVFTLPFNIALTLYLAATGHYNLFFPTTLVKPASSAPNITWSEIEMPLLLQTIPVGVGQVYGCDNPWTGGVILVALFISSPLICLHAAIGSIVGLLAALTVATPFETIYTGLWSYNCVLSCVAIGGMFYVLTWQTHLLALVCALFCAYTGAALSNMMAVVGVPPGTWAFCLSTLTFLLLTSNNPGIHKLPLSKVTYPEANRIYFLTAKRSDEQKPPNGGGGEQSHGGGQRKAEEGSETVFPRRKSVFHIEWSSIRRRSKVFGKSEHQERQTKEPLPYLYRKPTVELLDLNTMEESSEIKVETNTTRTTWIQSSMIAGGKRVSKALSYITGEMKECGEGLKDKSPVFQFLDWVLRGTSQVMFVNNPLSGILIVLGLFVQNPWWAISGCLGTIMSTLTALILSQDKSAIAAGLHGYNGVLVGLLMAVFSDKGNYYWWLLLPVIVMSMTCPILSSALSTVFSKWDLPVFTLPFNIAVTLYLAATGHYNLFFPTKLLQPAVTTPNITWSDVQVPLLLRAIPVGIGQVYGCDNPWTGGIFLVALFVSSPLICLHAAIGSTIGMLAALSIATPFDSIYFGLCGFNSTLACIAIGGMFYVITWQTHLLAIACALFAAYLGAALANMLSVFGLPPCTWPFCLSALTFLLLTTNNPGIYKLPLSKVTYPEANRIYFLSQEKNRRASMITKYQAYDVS
Briefly: UT-A1 inhibition, fluorescence plate reader assay in MDCK cells expressing UT-A1, AQP1 and YFP-H148Q/V163S. Format: cell-based. Here is the method: Primary screening was done using a collection of 50,000 chemically diverse, drug-like compounds from ChemDiv (San Diego, Calif.). For analysis of structure-activity relationships, >300 commercially available analogs (ChemDiv and Asinex, Winston-Salem, N.C.) were tested. Cells were plated on black 96-well Costar microplates with clear plastic bottoms (Corning, Corning, N.Y.) at 15,000 cells/well and cultured for 24 h at 37° C. before assay. Microplates containing cultured cells were washed twice with PBS and 150 μL of test compound (25 μM final) in PBS was added. Eighty wells contained test compounds, and the first and last columns of each plate contained negative (dimethyl sulfoxide, DMSO) and positive (0.35 mM phloretin) controls. The assays were done on a plate reader (Tecan Trading AG, Switzerland) equipped with a custom YFP filter set. Each assay consisted of a continuous 15-s read (5 Hz) in which 50 μL of 3.2 M urea in PBS was injected at 1 s (at 130 μL/s) to give a 800 mM final urea gradient.
MDCK cells stably expressing rat UT-A1 (see, e.g., Frohlich et al. (2006) Am J Physiol Cell Physiol. 291, C600-D606), YFP-H148Q/V163 S (see, e.g., Galietta, et al. (2001) FEBS Lett. 499, 220-224) and human AQP1, as described previously (see, e.g., Esteva-Font et al. (2013) Chem Biol. 20, 1235-1244), were grown in Dulbecco's modified Eagle medium (DMEM) containing 10% fetal bovine serum (FBS), penicillin G (100 U/mL), streptomycin (100 μg/mL), zeocin (500 μg/mL), geneticin (600 μg/mL) and Hygromycin (500 μg/mL) at 37° C., 5% CO2. A Cell Clone with bright YFP fluorescence and relatively low AQP1 expression was used for the screen to maximize dynamic range.
In order to identify UT-A inhibitors suitable for testing in rats, a collection of 50,000 synthetic small molecules was screened. As diagrammed in FIG. 1A (top), the fluorescence cell-based screen utilized MDCK cells stably rat expressing UT-A1, water channel AQP1 and the cytoplasmic chloride-sensing fluorescent protein YFP-H148Q/V163S. As described and validated previously (see, e.g., Esteva-Font et al. (2013) Chem Biol. 20, 1235-1244), extracellular addition of urea results in osmotic water efflux and cell shrinking, which increases intracellular chloride concentration and reduces YFP fluorescence. Urea entry results in increasing YFP fluorescence as cells re-swell. Inhibitors of UT-A1 urea transport produce a lesser reduction in fluorescence and slowed recovery.

Data set [1] can be described thus: In vitro metabolic stability in rat hepatic microsomes. Format: in vitro ADME. Particulars: at 60 min, 5 μM, NADPH. As to the method:
As described (see, e.g., Snyder et al. (2011) J Med Chem. 54, 5468-5477), compounds (each 5 μM) were incubated for specified times at 37° C. with rat liver microsomes (1 mg protein/mL; Sigma-Aldrich, St. Louis, Mo.) in potassium phosphate buffer (100 mM) containing 1 mM NADPH. The mixture was then chilled on ice, and 0.5 mL of ice-cold EtOAc was added. Samples were centrifuged for 15 min at 3,000 rpm, the supernatant evaporated to dryness, and the residue was dissolved in 100 μl mobile phase (acetonitrile: water [3:1], containing 0.1% formic acid) for LC/MS. Reverse-phase HPLC separations were carried out using a XTERRA MS C18 column (2.1 mm×100 mm, 3.5 m) equipped with a solvent delivery system (Waters model 2695, Milford, Mass.). The solvent system consisted of a linear gradient from 5 to 95% acetonitrile containing 0.1% formic acid, run over 16 min (0.2 mL/min flow rate).
In vitro metabolic stability was measured by LC/MS after incubation with rat hepatic microsomes and NADPH.

Values joined by “and” are separate entries in the source; they are usually repeats but may differ in a detail not shown here. Identical values can stand only once.

For the molecule `CC(=O)Nc1ccc(-c2csc(-c3c[nH]c4ccccc34)n2)cc1` [UTA1inh-E02, N-(4-(2-(1H-indol-3-yl)thiazol-4-yl)phenyl)acetamide], the IC50 (usually the concentration that gives 50% inhibition) against rat UT-A1 is ~1 µM and 1 µM. For the same molecule, the metabolism in data set [1] was ~50%.

`COc1ccc(C)cc1S(=O)(=O)Nc1ccc(Cl)c(N2CCCS2(=O)=O)c1` [UTA1inh-F11, N-[4-Chloro-3-(1,1-dioxido-1,2-thiazolidin-2-yl)phenyl]-2-methoxy-5-methylbenzene-sulfonamide] returned an IC50 against rat UT-A1 of 1 µM. For the same molecule, the metabolism in data set [1] is recorded as ~50%.

(Values after patent US11123340B2, “Small-molecule UT-A-selective urea transport inhibitors” (The Regents of the University of California, priority 2014, dated 2021).)
